Calls of active or inactive are those of the source. No cut-off for these calls is given here.
Experiments:
[1] = target: Protein farnesyltransferase (Rattus norvegicus) (UniProt Q04631+Q02293); test: Inhibition of rat recombinant FTase alpha/beta expressed in Escherichia coli at 50000 nM using K-Ras4B as a substrate as and [3H]farnesyl pyrophosphate incubated for 30 mins by scintillation counting assay
Rattus norvegicus [2] = organism: Rattus norvegicus; test: Uncompetitive inhibition of rat recombinant geranylgeranyltransferase type I expressed in Escherichia coli assessed as reduction in geranylgeranylation of RhoA incubated for 30 mins in presence of varying level of [3H]GGPP and fixed RhoA levels by scintillation counting assay by Michaelis-Menten plot analysis
HEK293 [3] = test: Inhibition of geranylgeranyltransferase type I in HEK293 cells expressing Myc-HA-tagged Rheb-WT assessed as effect on unprenylated Rap1 accumulation at 3.1 to 25 uM incubated for 48 hrs by SDS-PAGE and immunoblot analysis; format: cell-based; conditions: Homo sapiens
Rattus norvegicus [4] = organism: Rattus norvegicus; test: Inhibition of rat recombinant geranylgeranyltransferase type I expressed in Escherichia coli assessed as residual enzyme activity for geranylgeranylation of RhoA at 50 uM incubated for 30 mins in presence of [3H]GGPP by scintillation counting assay relative to control
[5] = Inhibition of rat recombinant geranylgeranyltransferase type I expressed in Escherichia coli assessed as reduction in geranylgeranylation of RhoA incubated for 30 mins in presence of [3H]GGPP by scintillation counting assay relative to control
HEK293 [6] = test: Inhibition of geranylgeranyltransferase type I in HEK293 cells expressing Myc-HA-tagged Rheb-WT assessed as effect on unprenylated Rap1 accumulation at 2.5 uM incubated for 48 hrs by SDS-PAGE and immunoblot analysis; format: cell-based; conditions: Homo sapiens
Jurkat [7] = test: Antiproliferative activity against human Jurkat cells assessed as inhibition of cell proliferation at 12.5 uM incubated for 72 hrs by CCK8 assay; format: functional, cell-based
Rattus norvegicus [8] = organism: Rattus norvegicus; test: Inhibition of rat recombinant geranylgeranyltransferase type I expressed in Escherichia coli assessed as residual enzyme activity for geranylgeranylation of K-Ras4B at 50 uM incubated for 30 mins in presence of [3H]GGPP by scintillation counting assay relative to control
PANC-1 [9] = test: Antiproliferative activity against human PANC1 cells assessed as inhibition of cell proliferation at 12.5 uM incubated for 72 hrs by CCK8 assay; format: functional, cell-based
[10] = target: Geranylgeranyl transferase type-2 (Homo sapiens) (UniProt P53611+Q92696); test: Inhibition of RabGGTase (unknown origin) up to 10000 nM using YPTI as substrate protein and [3H]geranylgeranyl pyrophosphate incubated for 20 mins by scintillation counting assay; format: protein-complex assay
HEK293 [11] = test: Inhibition of geranylgeranyltransferase type I in HEK293 cells expressing Myc-HA-tagged Rheb-CVSL assessed as effect on unprenylated Rap1 accumulation at 12.5 to 50 uM incubated for 48 hrs by SDS-PAGE and immunoblot analysis; format: cell-based; conditions: Homo sapiens
Rattus norvegicus [12] = organism: Rattus norvegicus; test: Competitive inhibition of rat recombinant geranylgeranyltransferase type I expressed in Escherichia coli assessed as reduction in geranylgeranylation of RhoA incubated for 30 mins in presence of varying level of [3H]GGPP and fixed RhoA levels by scintillation counting assay relative to control
Rattus norvegicus [13] = organism: Rattus norvegicus; test: Competitive inhibition of rat recombinant geranylgeranyltransferase type I expressed in Escherichia coli assessed as reduction in geranylgeranylation of RhoA incubated for 30 mins in presence of fixed level of [3H]GGPP and varying RhoA levels by scintillation counting assay relative to control
[14] = Inhibition of rat recombinant geranylgeranyltransferase type I expressed in Escherichia coli assessed as reduction in geranylgeranylation of K-Ras4B incubated for 30 mins in presence of [3H]GGPP by scintillation counting assay
[15] = target: T1, Geranylgeranyl transferase type-2 (Homo sapiens, UniProt P53611+Q92696); test: Inhibition of RabGGTase (unknown origin) using YPTI as substrate protein and [3H]geranylgeranyl pyrophosphate incubated for 20 mins by scintillation counting assay; format: protein-complex assay
T1 sequence (P53611 whole entry): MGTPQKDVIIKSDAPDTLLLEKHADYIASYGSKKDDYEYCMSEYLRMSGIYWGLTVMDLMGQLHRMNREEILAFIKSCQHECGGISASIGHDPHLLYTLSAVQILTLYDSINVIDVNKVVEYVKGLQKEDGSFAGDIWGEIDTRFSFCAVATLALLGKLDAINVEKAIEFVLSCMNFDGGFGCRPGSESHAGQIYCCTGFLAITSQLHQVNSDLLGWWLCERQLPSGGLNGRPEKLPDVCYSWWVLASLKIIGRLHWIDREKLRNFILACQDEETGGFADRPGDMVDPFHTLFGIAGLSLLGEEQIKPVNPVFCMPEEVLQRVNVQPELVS
T1 sequence (Q92696 whole entry): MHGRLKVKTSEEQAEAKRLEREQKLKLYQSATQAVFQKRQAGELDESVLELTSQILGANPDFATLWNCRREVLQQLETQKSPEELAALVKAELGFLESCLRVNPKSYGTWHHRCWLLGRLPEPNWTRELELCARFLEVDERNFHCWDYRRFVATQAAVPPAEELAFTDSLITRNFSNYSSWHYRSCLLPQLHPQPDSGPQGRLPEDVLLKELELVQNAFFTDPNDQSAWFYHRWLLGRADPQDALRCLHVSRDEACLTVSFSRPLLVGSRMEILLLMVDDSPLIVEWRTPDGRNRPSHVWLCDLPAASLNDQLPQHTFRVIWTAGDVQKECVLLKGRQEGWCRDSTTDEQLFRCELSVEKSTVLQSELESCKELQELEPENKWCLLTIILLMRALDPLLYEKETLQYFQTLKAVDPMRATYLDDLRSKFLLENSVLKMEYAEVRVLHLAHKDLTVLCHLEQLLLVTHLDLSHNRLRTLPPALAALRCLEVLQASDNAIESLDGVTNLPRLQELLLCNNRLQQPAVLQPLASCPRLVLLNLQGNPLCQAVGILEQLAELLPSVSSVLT

[16] = target: Protein farnesyltransferase (Rattus norvegicus, UniProt Q02293+Q04631); test: Inhibition of rat recombinant FTase alpha/beta expressed in Escherichia coli using K-Ras4B as a substrate as and [3H]farnesyl pyrophosphate incubated for 30 mins by scintillation counting assay
CFPAC-1 = test: Antiproliferative activity against human CFPAC-1 cells assessed as inhibition of cell proliferation incubated for 72 hrs by CCK8 assay; format: functional, cell-based; conditions: CFPAC-1, 72 h
ASPC1 = test: Antiproliferative activity against human AsPC1 cells assessed as inhibition of cell proliferation incubated for 6 days by CCK8 assay; format: functional, cell-based; conditions: ASPC1, 144 h
MIA PaCa-2 = test: Antiproliferative activity against human MIAPaCa2 cells assessed as inhibition of cell proliferation incubated for 72 hrs by CCK8 assay; format: functional, cell-based; conditions: MIA PaCa-2, 72 h
Capan-2 = test: Antiproliferative activity against human Capan2 cells assessed as inhibition of cell proliferation incubated for 72 hrs by CCK8 assay; format: functional, cell-based; conditions: Capan-2, 72 h
[17] = Antiproliferative activity against human MCF10A cells assessed as inhibition of cell proliferation incubated for 72 hrs by CCK8 assay; format: cell-based, MCF-10A
MCF7 = test: Antiproliferative activity against human MCF7 cells assessed as inhibition of cell proliferation incubated for 6 days by CCK8 assay; format: functional, cell-based; conditions: MCF7, 144 h
K562 = test: Antiproliferative activity against human K562 cells assessed as inhibition of cell proliferation incubated for 72 hrs by CCK8 assay; format: functional, cell-based; conditions: K562, 72 h
Jurkat [18] = test: Antiproliferative activity against human Jurkat cells assessed as inhibition of cell proliferation incubated for 72 hrs by CCK8 assay; format: functional, cell-based
HEK293 [19] = test: Inhibition of geranylgeranyltransferase type I in HEK293 cells expressing Myc-HA-tagged Rheb-CVSL assessed as effect on unprenylated Rap1 accumulation at 5 to 10 uM incubated for 48 hrs by SDS-PAGE and immunoblot analysis; format: cell-based; conditions: Homo sapiens
HEK293 [20] = test: Inhibition of geranylgeranyltransferase type I in HEK293 cells expressing Myc-HA-tagged Rheb-WT assessed as effect on unprenylated Rap1 accumulation at 1.25 to 10 uM incubated for 48 hrs by SDS-PAGE and immunoblot analysis; format: cell-based; conditions: Homo sapiens
PANC-1 [21] = test: Antiproliferative activity against human PANC1 cells assessed as inhibition of cell proliferation incubated for 72 hrs by CCK8 assay; format: functional, cell-based; conditions: PANC-1, 72 h
MDA-MB-231 = test: Antiproliferative activity against human MDA-MB-231 cells assessed as inhibition of cell proliferation incubated for 72 hrs by CCK8 assay; format: functional; conditions: MDA-MB-231, 72 h
BT-474 = test: Antiproliferative activity against human BT474 cells assessed as inhibition of cell proliferation incubated for 72 hrs by CCK8 assay; format: functional, cell-based; conditions: BT-474, 72 h

SMILES: Cc1ccccc1S(=O)(=O)N1[C@@H](c2ccc(Cl)cc2)C(C(=O)O)=C[C@H]1C(C)(C)C (relative stereo)
- inhibition [1]: inactive
- inhibition (Rattus norvegicus [2]): Active
- inhibition (HEK293 [3]): Active
- Activity (Rattus norvegicus [4]): 5.3%
- IC50 [5]: 0.5 to 2.5 µM
- inhibition (HEK293 [6]): inactive
- growth inhibition (GI) (Jurkat [7]): Active
- Activity (Rattus norvegicus [8]): 13.3%
- growth inhibition (GI) (PANC-1 [9]): Active
- inhibition [10]: Active
- inhibition (HEK293 [11]): Active
- inhibition (Rattus norvegicus [12]): inactive
- inhibition (Rattus norvegicus [13]): Active
- IC50 [14]: 2 µM

SMILES: CCCCCCS[C@H]1[C@@H](C(=O)O)[C@H](c2ccc(Br)cc2)N(S(=O)(=O)c2ccc(C)cc2)[C@@H]1CC
- IC50 [15]: 4.8 µM
- IC50 [5]: > 50 µM
- IC50 [16]: > 100 µM

SMILES: Cc1ccccc1S(=O)(=O)N1[C@@H](c2ccc(Cl)cc2)C(C(=O)N[C@@H](Cc2ccccc2)C(=O)O)=C[C@H]1C(C)(C)C
- GI50 (CFPAC-1): 6.38 µM
- GI50 (ASPC1): 12.4 µM
- GI50 (MIA PaCa-2): 7.48 µM
- GI50 (Capan-2): 11.5 µM

SMILES: CCCCCCS[C@H]1[C@@H](C(=O)O)[C@H](c2ccc(Cl)c(Cl)c2)N(S(=O)(=O)c2ccc(C)cc2)[C@@H]1CCC
- IC50 [15]: 7 µM
- IC50 [5]: 5.1 µM
- IC50 [16]: > 100 µM

SMILES: Cc1ccccc1S(=O)(=O)N1[C@@H](c2cccc(Cl)c2)C(C(=O)N[C@@H](CC(C)C)C(N)=O)=CC[C@H]1c1ccc(Cl)cc1
- GI50 (CFPAC-1): 13.7 µM
- GI50 at 72 h [17]: > 20 µM
- IC50 [5]: > 50 µM
- GI50 (MIA PaCa-2): 12 µM
- GI50 (MCF7): 10.9 µM
- GI50 (K562): 6.15 µM
- GI50 (Jurkat [18]): 6.1 µM
- GI50 (Capan-2): 14 µM

SMILES: CCCCCS[C@H]1[C@@H](C(=O)O)[C@H](c2ccc(Br)cc2)N(S(=O)(=O)c2ccc(C)cc2)[C@@H]1CCC
- IC50 [15]: 3.6 µM
- IC50 [5]: > 50 µM
- IC50 [16]: > 100 µM

SMILES: COC(=O)[C@H](Cc1ccccc1)NCC(=O)OCC1=C[C@@H](C(C)(C)C)N(S(=O)(=O)c2ccccc2C)[C@H]1c1ccc(Cl)cc1
- inhibition (HEK293 [19]): Active
- inhibition (HEK293 [20]): Active

SMILES: Cc1ccccc1S(=O)(=O)N1[C@@H](c2ccc(Cl)c(Cl)c2)C(C(=O)N[C@@H](Cc2ccccc2)C(N)=O)=C[C@H]1C(C)(C)C
- GI50 (CFPAC-1): 2.03 to 6.09 µM
- IC50 [5]: 5.4 to 7.6 µM
- GI50 (PANC-1 [21]): 7.52 to 11.7 µM
- GI50 (MDA-MB-231): 5.54 to 12.6 µM
- GI50 (ASPC1): 11.5 to 12.9 µM
- GI50 (MIA PaCa-2): 7.49 to 8.06 µM
- GI50 (BT-474): 10.6 to 10.8 µM
- GI50 (K562): 6.74 to 6.9 µM
- GI50 (Jurkat [18]): 5.62 to 6.9 µM
- GI50 (Capan-2): 8.45 to 11.3 µM
